According to patent US20260262643A1, “HERBICIDAL BENZOXAZINES” (FMC CORPORATION, priority 2022, published 2026):

Columns and labels:
[1] = system: corn; assay: Test C postemergence; assay type: in vivo, Zea mays; conditions: 10 days
In short: (§1)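 Visual injury ratings on a 0–100 scale (100 = complete control) were made against untreated controls 10 days after treatment in the greenhouse. Compounds, formulated with surfactant in non-phytotoxic solvent, were sprayed on soil preemergence or onto one- to two-leaf plants 2–10 cm tall postemergence.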

[2] = system: kochia; assay: Test C preemergence; assay type: in vivo, Bassia scoparia; conditions: 0 to 100 scale (0 no effect, 100 complete control)
In short: as §1

[3] = system: corn; assay: Test C preemergence; assay type: in vivo, Zea mays; conditions: 0 to 100 scale (0 no effect, 100 complete control)
In short: as §1

[4] = system: ragweed; assay: Test C preemergence; assay type: in vivo, Ambrosia artemisiifolia; conditions: 0 to 100 scale (0 no effect, 100 complete control)
In short: as §1

[5] = system: ducksalad; assay: Test D flooded paddy test; assay type: in vivo, Heteranthera limosa; conditions: 250 g ai/ha, applied to paddy water, visual rating after 13 to 14 days, scale 0 to 100 (0 no effect, 100 complete control)
In short: (§2)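 Rating scale 0–100 (0 no effect, 100 complete control), visual, versus controls. Readout at 13–14 days after in-water application to 2-leaf plants in pots flooded 3 cm deep.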

[6] = system: oat, wild; assay: Test C postemergence; assay type: in vivo, Avena fatua; conditions: 10 days
In short: as §1

[7] = system: wheat; assay: Test C postemergence; assay type: in vivo, Triticum aestivum; conditions: 10 days
In short: as §1

[8] = system: blackgrass; assay: Test C postemergence; assay type: in vivo, Alopecurus myosuroides; conditions: 10 days
In short: as §1

[9] = system: kochia; assay: Test C postemergence; assay type: in vivo, Bassia scoparia; conditions: 10 days
In short: as §1

[10] = system: barnyardgrass; assay: Test D flooded paddy test; assay type: in vivo, Echinochloa crus-galli; conditions: 250 g ai/ha, applied to paddy water, visual rating after 13 to 14 days, scale 0 to 100 (0 no effect, 100 complete control)
In short: as §2

[11] = system: soybean; assay: Test C preemergence; assay type: in vivo, Glycine max; conditions: 0 to 100 scale (0 no effect, 100 complete control)
In short: as §1

[12] = system: barnyardgrass; assay: Test C preemergence; assay type: in vivo, Echinochloa crusgalli; conditions: 0 to 100 scale (0 no effect, 100 complete control)
In short: as §1

[13] = system: green foxtail; assay: Test C preemergence; assay type: in vivo, Setaria viridis; conditions: 0 to 100 scale (0 no effect, 100 complete control)
In short: as §1

[14] = system: galium; assay: Test C postemergence; assay type: in vivo, Galium aparine; conditions: 125 g ai/ha, postemergence, 10 days; 0 to 100 scale, 0 no effect, 100 complete control
In short: as §1

[15] = system: barnyardgrass; assay: Test C postemergence; assay type: in vivo, Echinochloa crusgalli; conditions: 10 days
In short: as §1

[16] = system: ryegrass, Italian; assay: Test C preemergence; assay type: in vivo, Lolium multiflorum; conditions: 0 to 100 scale (0 no effect, 100 complete control)
In short: as §1

[17] = system: sedge, umbrella; assay: Test D flooded paddy test; assay type: in vivo, Cyperus difformis; conditions: 250 g ai/ha, applied to paddy water, visual rating after 13 to 14 days, scale 0 to 100 (0 no effect, 100 complete control)
In short: as §2

[18] = system: ragweed; assay: Test C postemergence; assay type: in vivo, Ambrosia artemisiifolia; conditions: 10 days
In short: as §1

[19] = system: blackgrass; assay: Test C preemergence; assay type: in vivo, Alopecurus myosuroides; conditions: 0 to 100 scale (0 no effect, 100 complete control)
In short: as §1

[20] = system: green foxtail; assay: Test C postemergence; assay type: in vivo, Setaria viridis; conditions: 10 days
In short: as §1

[21] = system: rice; assay: Test D flooded paddy test; assay type: in vivo, Oryza sativa; conditions: 250 g ai/ha, applied to paddy water, visual rating after 13 to 14 days, scale 0 to 100 (0 no effect, 100 complete control)
In short: as §2

[22] = system: oat, wild; assay: Test C preemergence; assay type: in vivo, Avena fatua; conditions: 0 to 100 scale (0 no effect, 100 complete control)
In short: as §1

[23] = system: pigweed, palmer; assay: Test C preemergence; assay type: in vivo, Amaranthus palmeri; conditions: 0 to 100 scale (0 no effect, 100 complete control)
In short: as §1

[24] = system: pigweed, palmer; assay: Test C postemergence; assay type: in vivo, Amaranthus palmeri; conditions: 10 days
In short: as §1

[25] = system: wheat; assay: Test C preemergence; assay type: in vivo, Triticum aestivum; conditions: 0 to 100 scale (0 no effect, 100 complete control)
In short: as §1

[26] = system: horseweed; assay: Test C postemergence; assay type: in vivo, Erigeron canadensis; conditions: 10 days
In short: as §1

[27] = system: ryegrass, Italian; assay: Test C postemergence; assay type: in vivo, Lolium multiflorum; conditions: 10 days
In short: as §1

[28] = system: soybean; assay: Test C postemergence; assay type: in vivo, Glycine max; conditions: 10 days
In short: as §1

[29] = 125 g ai/ha, postemergence, 0 to 100 scale, 0 no effect, 100 complete control
[30] = Postemergence, 500 g ai/ha, visual 0 to 100 scale (0 no effect, 100 complete control)
[31] = Preemergence, 500 g ai/ha, visual rating after 10 days
[32] = Test C, preemergence, 125 g ai/ha

Cc1ccc(-n2cnc(C[S+](C)[O-])n2)cc1C(=O)N1C[C@H](C)Oc2c(Cl)cccc21 (stereo partly drawn) [Compound 224]
100: Plant response rating, Soybean [11, 31] | Plant response rating, Foxtail, Green [13, 31] | Foxtail, Green plant response rating [13, 32] | Plant response rating, Galium [14] | Plant response rating, Pigweed, Palmer [23, 31] | Plant response rating, Ryegrass, Italian [27, 30] | Plant response rating, Soybean [28, 29] | Plant response rating, Soybean [28, 30]
80: Plant response rating, Ryegrass, Italian [16, 31]
98: Plant response rating, Sedge, Umbrella (Flood) [17]
10: Plant response rating, Barnyardgrass (Flood) [10] | Plant response rating, Barnyardgrass [15, 29]
30: Plant response rating, Blackgrass [8, 29] | Oat, Wild plant response rating [22, 32] | Plant response rating, Horseweed [26, 29]
15: Plant response rating, Rice (Flood) [21]
20: Plant response rating, Corn [3, 31] | Plant response rating, Wheat [7, 29] | Blackgrass plant response rating [19, 32] | Plant response rating, Foxtail, Green [20, 29]
70: Plant response rating, Kochia [2, 31] | Plant response rating, Oat, Wild [6, 30] | Plant response rating, Blackgrass [8, 30] | Ryegrass, Italian plant response rating [16, 32] | Plant response rating, Ragweed [18, 30] | Plant response rating, Blackgrass [19, 31] | Plant response rating, Foxtail, Green [20, 30]
60: Plant response rating, Wheat [7, 30] | Soybean plant response rating [11, 32]
90: Plant response rating, Corn [1, 30] | Plant response rating, Kochia [9, 29] | Plant response rating, Kochia [9, 30] | Plant response rating, Barnyardgrass [12, 31] | Plant response rating, Oat, Wild [22, 31] | Pigweed, Palmer plant response rating [23, 32] | Plant response rating, Pigweed, Palmer [24, 29] | Plant response rating, Pigweed, Palmer [24, 30]
0: Corn plant response rating [3, 32] | Ragweed plant response rating [4, 32] | Wheat plant response rating [25, 32]
50: Plant response rating, Corn [1, 29] | Plant response rating, Oat, Wild [6, 29] | Plant response rating, Barnyardgrass [15, 30] | Plant response rating, Ragweed [18, 29] | Plant response rating, Wheat [25, 31] | Plant response rating, Horseweed [26, 30] | Plant response rating, Ryegrass, Italian [27, 29]
40: Kochia plant response rating [2, 32] | Plant response rating, Ragweed [4, 31] | Barnyardgrass plant response rating [12, 32]
95: Plant response rating, Ducksalad (Flood) [5]
